What was measured:
HeLa cells = test: Proliferation assay, HeLa (Method 3); type: cell-based, human; conditions: Homo sapiens, HeLa, 96 h, 4 days, crystal violet; read-out: Inhibition of HeLa cell proliferation IC50
Protocol: Cultivated tumour cells (HeLa, human cervical tumour cells, ATCC CCL-2; NCI-H460, human non-small cell lung carcinoma cells, ATCC HTB-177; A2780, human ovarian carcinoma cells, ECACC #93112519; DU 145, hormone-independent human prostate carcinoma cells, ATCC HTB-81; HeLa-MaTu-ADR, multidrug-resistant human cervical carcinoma cells, EPO-GmbH Berlin; Caco-2, human colorectal carcinoma cells, ATCC HTB-37; B16F10, mouse melanoma cells, ATCC CRL-6475) were plated at a density of 5,000 cells/well (DU145, HeLa-MaTu-ADR), 3,000 cells/well (NCI-H460, HeLa), 2,500 cells/well (A2780), 1,500 cells/well (Caco-2), or 1,000 cells/well (B16F10) in a 96-well multititer plate in 200 μL of their respective growth medium supplemented 10% fetal calf serum. After 24 hours, the cells of one plate (zero-point plate) were stained with crystal violet (see below), while the medium of the other plates was replaced by fresh culture medium (200 μl), to which the test substances were added in various concentrations (0 μM, as well as in the range of 0.001-10 μM; the final concentration of the solvent dimethyl sulfoxide was 0.5%). The cells were incubated for 4 days in the presence of test substances. Cell proliferation was determined by staining the cells with crystal violet: the cells were fixed by adding 20 μl/measuring point of an 11% glutaric aldehyde solution for 15 minutes at room temperature. After three washing cycles of the fixed cells with water, the plates were dried at room temperature. The cells were stained by adding 100 μl/measuring point of a 0.1% crystal violet solution (pH 3.0). After three washing cycles of the stained cells with water, the plates were dried at room temperature. The dye was dissolved by adding 100 μl/measuring point of a 10% acetic acid solution. The extinction was determined by photometry at a wavelength of 595 nm. The change of cell number, in percent, was calculated by normalization of the measured values to the extinction values of the zero-point plate (=0%) and the extinction of the untreated (0 μm) cells (=100%). The IC50 values (inhibitory concentration at 50% of maximal effect) were determined by means of a 4 parameter fit.

CDK9/CycT1 = target: T1, CDK9/CycT1 (Homo sapiens, UniProt P50750); test: CDK9/CycT1 high ATP kinase assay (Method 1b); type: biochemical; conditions: 2 mM ATP
T1 construct: Recombinant full-length His-tagged human CDK9 and CycT1; His; purchased Invitrogen PV4131; host or cells: insect cells
T1 sequence (P50750 whole entry): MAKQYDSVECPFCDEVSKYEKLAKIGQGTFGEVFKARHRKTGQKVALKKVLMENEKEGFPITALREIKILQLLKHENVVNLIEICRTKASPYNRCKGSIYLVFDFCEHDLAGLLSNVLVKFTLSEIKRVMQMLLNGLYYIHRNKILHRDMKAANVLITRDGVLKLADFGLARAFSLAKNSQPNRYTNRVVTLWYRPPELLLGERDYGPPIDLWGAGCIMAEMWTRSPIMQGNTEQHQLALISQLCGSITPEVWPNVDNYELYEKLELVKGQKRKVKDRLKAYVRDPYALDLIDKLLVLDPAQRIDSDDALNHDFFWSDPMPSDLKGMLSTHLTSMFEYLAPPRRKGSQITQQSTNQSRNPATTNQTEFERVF
T1 sequence (O60563 whole entry partner): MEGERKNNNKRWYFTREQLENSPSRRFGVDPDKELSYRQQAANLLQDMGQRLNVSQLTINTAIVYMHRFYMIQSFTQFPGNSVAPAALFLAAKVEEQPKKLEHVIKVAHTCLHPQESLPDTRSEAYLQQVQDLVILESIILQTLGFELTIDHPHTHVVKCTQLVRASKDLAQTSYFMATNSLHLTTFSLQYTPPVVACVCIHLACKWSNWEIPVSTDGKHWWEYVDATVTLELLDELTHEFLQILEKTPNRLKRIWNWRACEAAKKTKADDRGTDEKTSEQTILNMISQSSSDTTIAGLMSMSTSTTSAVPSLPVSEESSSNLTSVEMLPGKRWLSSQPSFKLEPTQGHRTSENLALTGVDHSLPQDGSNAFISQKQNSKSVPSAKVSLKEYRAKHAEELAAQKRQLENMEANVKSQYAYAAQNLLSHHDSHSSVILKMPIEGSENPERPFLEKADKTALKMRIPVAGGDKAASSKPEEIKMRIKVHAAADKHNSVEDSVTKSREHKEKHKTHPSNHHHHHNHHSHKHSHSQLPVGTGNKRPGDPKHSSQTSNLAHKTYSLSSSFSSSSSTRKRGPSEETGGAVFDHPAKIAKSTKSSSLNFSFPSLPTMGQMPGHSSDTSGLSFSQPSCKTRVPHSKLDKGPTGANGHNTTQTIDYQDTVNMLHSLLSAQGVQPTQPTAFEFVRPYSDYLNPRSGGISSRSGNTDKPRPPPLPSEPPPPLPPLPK
Protocol: 1b. CDK9/CycT1 High ATP Kinase Assay
CDK9/CycT1-inhibitory activity of compounds of the present invention at a high ATP concentration after preincubation of enzyme and test compounds was quantified employing the CDK9/CycT1 TR-FRET assay as described in the following paragraphs.
Recombinant full-length His-tagged human CDK9 and CycT1, expressed in insect cells and purified by Ni-NTA affinity chromatography, were purchase from Invitrogen (Cat. No PV4131). As substrate for the kinase reaction biotinylated peptide biotin-Ttds-YISPLKSPYKISEG (C-terminus in amid form) was used which can be purchased e.g. form the company JERINI peptide technologies (Berlin, Germany).
For the assay 50 nl of a 100 fold concentrated solution of the test compound in DMSO was pipetted into a black low volume 384 well microtiter plate (Greiner Bio-One, Frickenhausen, Germany), 2 μl of a solution of CDK9/CycT1 in aqueous assay buffer [50 mM Tris/HCl pH 8.0, 10 mM MgCl2, 1.0 mM dithiothreitol, 0.1 mM sodium ortho-vanadate, 0.01% (v/v) Nonidet-P40 (Sigma)] were added and the mixture was incubated for 15 min at 22° C. to allow pre-binding of the test compounds to the enzyme before the start of the kinase reaction. Then the kinase reaction was started by the addition of 3 μl of a solution of adenosine-tri-phosphate (ATP, 3.3 mM=>final conc. in the 5 μl assay volume is 2 mM) and substrate (1.67 μM=>final conc. in the 5 μl assay volume is 1 μM) in assay buffer and the resulting mixture was incubated for a reaction time of 25 min at 22° C. The concentration of CDK9/CycT1 was adjusted depending of the activity of the enzyme lot and was chosen appropriate to have the assay in the linear range, typical concentrations were in the range of 0.5 μg/ml. The reaction was stopped by the addition of 5 μl of a solution of TR-FRET detection reagents (0.2 μM streptavidine-XL665 [Cisbio Bioassays, Codolet, France] and 1 nM anti-RB(pSer807/pSer811)-antibody from BD Pharmingen [#558389] and 1.2 nM LANCE EU-W1024 labeled anti-mouse IgG antibody [Perkin-Elmer, product no. AD0077]) in an aqueous EDTA-solution (100 mM EDTA, 0.2% (w/v) bovine serum albumin in 100 mM HEPES/NaOH pH 7.0).
The resulting mixture was incubated 1 h at 22° C. to allow the formation of complex between the phosphorylated biotinylated peptide and the detection reagents. Subsequently the amount of phosphorylated substrate was evaluated by measurement of the resonance energy transfer from the Eu-chelate to the streptavidine-XL. Therefore, the fluorescence emissions at 620 nm and 665 nm after excitation at 350 nm was measured in a HTRF reader, e.g. a Rubystar (BMG Labtechnologies, Offenburg, Germany) or a Viewlux (Perkin-Elmer). The ratio of the emissions at 665 nm and at […] was taken as the measure for the amount of phosphorylated substrate. The data were normalised (enzyme reaction without inhibitor=0% inhibition, all other assay components but no enzyme=100% inhibition).

Q: With CCS(=N)(=O)Cc1ccnc(Nc2cc(-c3ccc(F)cc3OC)ncn2)c1 (racemic) [Example 11, (rac)-N-{4-[(S-Ethylsulfonimidoyl)methyl]pyridin-2-yl}-6-(4-fluoro-2-methoxyphenyl)pyrimidin-4-amine] as the compound, how does the IC50 (HeLa cells) read?
A: The IC50 was 338 nM.

Q: What about the IC50 (CDK9/CycT1) of the same compound?
A: Its IC50 is 194 nM.

From patent US9650361B2, “N-(pyridin-2-yl)pyrimidin-4-amine derivatives containing a sulfoximine group” (BAYER PHARAM AKTIENGESELLSCHAFT, priority 2012, dated 2017)
